Experimental data reported in patent US4033960A, “2-Mercaptoquinoxaline-di-N-oxide products and a method for their preparation” (Bayer Aktiengesellschaft, priority 1973, dated 1977).
Values after ≈ are worked out from the molar mass of the structure shown.

Tests used:
Assay in all cases: Minimum inhibitory concentration by the plate test (agar)
Assay type in all cases: cell-based
[1] = system: Staphylococcus aureus 133; conditions: per ml of nutrient medium, 5,000 cells/10 ml, 0-10 colonies formed, pH 7.4
Method: (§1) […] The bacteria to be tested are cast, together with the nutrient medium and the test substance distributed in the agar, into a Petri dish. The number of bacterial cells is 5,000/10 ml of nutrient medium. The minimum inhibitory concentration is the concentration at which 0-10 colonies are formed.

[2] = system: Escherichia coli C 165; conditions: 0-10 colonies formed, pH 7.4; for Minimum inhibitory concentration: per ml of nutrient medium, 5,000 cells/10 ml
Method: as §1

[3] = system: Escherichia coli A 261; conditions: 0-10 colonies formed, pH 7.4; for Minimum inhibitory concentration: per ml of nutrient medium, 5,000 cells/10 ml
Method: as §1

[4] = system: Klebsiella 8085; conditions: per ml of nutrient medium, 5,000 cells/10 ml, 0-10 colonies formed, pH 7.4
Method: as §1

[5] = system: Proteus vulgaris 1017; conditions: per ml of nutrient medium, 5,000 cells/10 ml, 0-10 colonies formed, pH 7.4
Method: as §1

Molecule | Minimum inhibitory concentration [1] [µg/mL] | Minimum inhibitory concentration [2] [µg/mL] | Minimum inhibitory concentration [3] [µg/mL] | MIC [4] [µg/mL] | MIC [1] [µg/mL] | MIC ([2]; C165, per ml of nutrient medium, 5,000 cells/10 ml) [µg/mL] | MIC ([3]; A261, per ml of nutrient medium, 5,000 cells/10 ml) [µg/mL] | MIC [5] [µg/mL] | Minimum inhibitory concentration [5] [µg/mL] | Minimum inhibitory concentration [4] [µg/mL]
6(7)-bromo-2-mercapto-3-methyl-quinoxaline-di-N-oxide [Example 4] | 100 | 100 | 100 |  |  |  |  |  |  | 
Cc1c(S)[n+]([O-])c2ccccc2[n+]1[O-] [Example 1, 2-Mercapto-3-methylquinoxaline-di-N-oxide] |  |  |  | 10 (≈ 48 µM) | 100 (≈ 480 µM) | 50 to 100 (≈ 240 to 480 µM) | 50 to 100 (≈ 240 to 480 µM) | 100 (≈ 480 µM) |  | 
6(7)-fluoro-2-mercapto-3-methyl-quinoxaline-di-N-oxide [Example 3] | 128 | 64 to 128 | 128 |  |  |  |  |  | 128 | 
6(7)-chloro-2-mercapto-3-methyl-quinoxaline-di-N-oxide [Example 2] | 128 | 128 | 128 |  |  |  |  |  | 64 to 128 | 128
6(7)-methoxy-2-mercapto-3-methyl-quinoxaline-di-N-oxide [Example 7] | 128 | 64 to 128 | 128 |  |  |  |  |  | 128 | 
